Measurements: patent US20240091169A1, “POL[…] FOR TREATING INFLAMMATORY DISEASES” (UNIVERSITY OF SOUTH CAROLINA, priority 2022, published 2024)

Tests used:
[1] = test system: BMDMs treated with C26 CM; assay: Survival of BMDMs cultured with C26 tumor conditioned media; type: cell-based, C57BL/6 mice; conditions: 48 hr
Protocol: Bone marrow-derived macrophages (BMDMs) were isolated from healthy 10-14-week-old C57BL/6 male mice. Briefly, mice were euthanized by isoflurane overdose. Femurs were cleared of muscle and debris. The epiphyses of the femurs were cut and placed knee-down and spun down in a 1.5 mL tube. Bone marrow was collected and resuspended in complete DMEM (cDMEM; 10% FBS, 1% penicillin/streptomycin) and passed through two 100 μm strainers. Cells were plated on an untreated 10 cm dish in cDMEM and allowed to incubate at 37° C. for 4 hr. Adherent/mature monocytes and dendritic cells were discarded, while floating/immature monocytes were collected. Cells were subjected to RBC lysis and resuspended in bone marrow maintenance media (BMMM; 20% L929-conditioned media in cDMEM). Cells were then plated on surface-treated 6-well plates at a 250 k cells/well seeding density. On day 3, fresh BMMM was added. On day 5, media was aspirated and fresh BMMM was added. […] Cells were stained and analyzed for macrophages via flow cytometry as described above with the addition of analyzing macrophage phenotypes. From the CD11b^+CD68^+ macrophage population, macrophage phenotypes were determined based on CD206 and CD11c expression. […] All cells were measured using a FACS Aria II (BD) and analyzed using FlowJo (BD Biosciences). […]

C26 CRC cells = assay: CCK-8 cell viability of C26 CRC cells; type: cell-based; conditions: 24 hr, read-out: IC50, anti-proliferative activity against C26 CRC cells
Protocol: BMDMs were isolated as described above. On day 6 of maturation, BMDMs were subjected to 7 concentrations of PA to assess cell death: 0.001, 0.01, 0.1, 1.0, 5.0, 10.0, and 100.0 μM. On day 7 (i.e., 24 hr-post PA treatment), CCK-8 (Dojindo; Cat #CK04) assays were completed per manufacturer's instructions. C26 CRC cells were also subjected to these 7 concentrations of PA for 24 hr to assess cell death using CCK-8. Three independent experiments were carried out.

C=CC(O)C#CC#CC/C=C\CCCCCCC (stereo in doubt) [PA, 3(R)-(9Z)-heptadeca-1,9-dien-4,6-diyn-3-ol]
reduction of macrophage survival ([1]; 1 μM PA): 31.5% | reduction of macrophage survival ([1]; 5 μM PA): 45.3% | IC50 (C26 CRC cells): 1000 nM
